Measurements as given in patent US20250224410A1, “READY-TO-[…] FOR CHEMICAL ANALYSES AND QUANTIFICATION OF ANALYTES IN BIOLOGICAL SAMPLES” (PinPoint Testing, LLC, priority 2021, published 2025).
“Also recorded” adds a separate entry of the source.

How the values were obtained:
[1] = tested on: purified recombinant beta glucuronidase (KURA); assay: Storage stability of analytical standards in ready-to-use test kits at −20° C. with recombinant beta-glucuronidase; type: physicochemical; conditions: for stability of the standard in ready-to-use kits (free drug degradant peak area normalized to codeine): kits made with suspended solid state and solid state (direct enzyme interface, urine matrix interface) technology, snap frozen at −20° C., LC-MS/MS
Experimental: (§1) Both (A) purified recombinant beta glucuronidase (KURA) and (B) beta glucuronidase purified from abalone tissue show similar results. Complete degradation was estimated by incubating the buprenorphine glucuronic acid standard under optimum reaction conditions for 1 hr. Negative controls were processed like that of mixed kits but excluded the respective beta-glucuronidase enzyme to measure non-specific degradation. All samples were extracted with acetonitrile prior to analysis using a liquid chromatography tandem mass spectrometry method optimized for buprenorphine. Where possible beta-glucuronidase enzyme was removed from suspended solid state, direct enzyme, and urine matrix samples prior to extraction. Acetonitrile was directly added to frozen mixed kits and negative controls to immediately degrade the beta glucuronidase enzyme. Removal of enzyme prior to extraction and the quick addition of acetonitrile limited degradation associated with sample processing and provided a better measurement of storage stability. Peak area of the degradant (free drug) was normalized to the response of codeine which was included to control for day-to-day and analytical variation. Data are presented as average±standard deviation (n=3-4). All experimental groups were manufactured and snap frozen at −20° C. prior to analysis.
(§2) Therefore, novel technology is required to stabilize process control specimens if ready-to-use formats are to be developed for analytical laboratories. Three new technologies (suspended solid state, direct enzyme interface, and urine matrix interface technology) were investigated to determine their utility in ready-to-use analytical test kit designs. While all three technologies afforded significant protection and stabilized the manufacturing process, only the suspended state and urine matrix technologies provided complete stability for 14 days in kits stored at −20° C.
(§3) The amount of degradation is independent of the source of the beta glucuronidase and remains constant for 14 days when kits are stored at −20° C. This storage temperature was selected because it is mostly commonly utilized by analytical testing laboratories. Degradation is specifically associated with manufacturing and storage because acetonitrile used for sample extraction was added immediately to frozen kits to degrade the beta-glucuronidase enzyme prior to sample processing and where possible (solid-state, direct enzyme interface, and matrix interface samples) the beta-glucuronidase enzyme was removed prior to sample extraction. These measures minimized any degradation that may have occurred during sample processing.
A 48-well plate from Innovative Labs (48 Rectangular Well U-Bottom 42.60 mm Height, 4.6 mL capacity) was formulated with various combinations of a mixture of glucuronidated drugs purchased from Cerilliant, Round Rock Texas, US (see details in table below), abalone enzyme (item #CST208) from ChemSci technologies, Belvidere IL, USA, Recombinant B-One (item #B-One-100 mL) enzyme from Kura Bioscience, buffer solution made with 5 mL of acetic acid and 7.71 g of ammonium acetate in 995 mL of pure water, and blank urine (item #OH2060) from Golden West Diagnostics.
Wells E1, F1, G1, and H1 designated as “Kura Pos. control drugs+Enz” contain the glucuronide drug standards in 50 μL DMSO mixed with […] of water and […] of Kura enzyme. The materials in this well were stored in frozen state before use.
Wells A3, B3, C3, and D3 designated as “DB pop removed Kura” contain the glucuronide drug standards in 50 μL DMSO and a suspended frozen mixture of […] of water and […] of Kura enzyme (see example 5: manufacturing process D). The materials in this well were stored in frozen state before use and the frozen enzyme and water mixture was removed prior to analysis of the well contents.

[2] = tested on: beta glucuronidase purified from abalone tissue; assay: Storage stability of analytical standards in ready-to-use test kits at −20° C. with abalone beta-glucuronidase; type: physicochemical; conditions: for stability of the standard in ready-to-use kits (free drug degradant peak area normalized to codeine): kits made with suspended solid state and solid state (direct enzyme interface, urine matrix interface) technology, snap frozen at −20° C., LC-MS/MS; for stability of the standard, suspended solid state technology / stability of the standard, urine matrix interface technology: up to 14 days
Experimental: as §1
FIG. 5. […] Negative controls were processed like that of mixed kits but excluded the respective beta-glucuronidase enzyme to measure non-specific degradation. Since 6-MAM was directly assayed complete degradation was estimated at the limit of detection (S/N≤10) established for the liquid chromatography tandem mass spectrometry method optimized for 6-MAM detection. All samples were extracted with acetonitrile prior to analysis. Where possible beta-glucuronidase enzyme was removed from suspended solid state, direct enzyme, and urine matrix samples prior to extraction. Acetonitrile was directly added to frozen mixed kits and negative controls to immediately degrade beta glucuronidase enzyme. Removal of enzyme prior to extraction and the quick addition of acetonitrile limited degradation associated with sample processing and provided a better measurement of storage stability. Peak area of 6-MAM was normalized to the response of codeine which was included to control for day-to-day and analytical variation. Data are presented as average±standard deviation (n=3-4). All experimental groups were manufactured and snap frozen at −20° C. prior to analysis.
as §2, §3

[3] = kits stored at −20° C., up to 14 days
[4] = mixed kits, snap frozen and stored at −20° C.

C[N+](C)(CCC=C1c2ccccc2CCc2ccccc21)[C@@H]1O[C@H](C(=O)[O-])[C@@H](O)[C@@H](O)[C@H]1O [amitriptyline glucuronic acid standard, Amitriptyline N-beta-D-glucuronide]
stability of the standard in ready-to-use kits (free drug degradant peak area normalized to codeine) [1]: fully protected and stabilized | stability of the standard in ready-to-use kits (free drug degradant peak area normalized to codeine) [2]: fully protected and stabilized

O=C1Nc2ccc(Cl)cc2C(c2ccccc2Cl)=NC1O[C@@H]1O[C@H](C(=O)O)[C@@H](O)[C@H](O)[C@H]1O (stereo partly shown) [lorazepam glucuronic acid standard, Lorazepam glucuronide]
stability of the standard in ready-to-use kits (free drug degradant peak area normalized to codeine) [1]: fully protected and stabilized | day at which complete degradation occurred, direct enzyme interface technology ([1]; kits stored at −20° C.): 14 day | day at which significant degradation was detected, direct enzyme interface technology ([1]; kits stored at −20° C.): 4 day | storage time for which the standard was protected, direct enzyme interface technology ([1]; kits stored at −20° C.): 1 day | stability of the standard, suspended solid state technology [1, 3]: fully protected | stability of the standard, urine matrix interface technology [1, 3]: fully protected | stability of the standard in ready-to-use kits (free drug degradant peak area normalized to codeine) [2]: fully protected and stabilized | day at which complete degradation occurred, direct enzyme interface technology ([2]; kits stored at −20° C.): 14 day | day at which significant degradation was detected, direct enzyme interface technology ([2]; kits stored at −20° C.): 4 day | storage time for which the standard was protected, direct enzyme interface technology ([2]; kits stored at −20° C.): 1 day | stability of the standard, suspended solid state technology ([2]; kits stored at −20° C.): fully protected | stability of the standard, urine matrix interface technology ([2]; kits stored at −20° C.): fully protected

CC(=O)O[C@H]1C=C[C@H]2[C@H]3Cc4ccc(O)c5c4[C@@]2(CCN3C)[C@H]1O5 [6-MAM, 6-monoacetylmorphine]
stability of the standard in kits that mix enzyme with the analytical standard [1, 4]: no 6-MAM degradation occurred | stability of the standard, direct enzyme interface technology ([2]; kits stored at −20° C.): slowed the rate of degradation but did not prevent 6-MAM degradation | stability of the standard, suspended solid state technology ([2]; kits stored at −20° C.): fully protected; also recorded: fully protects and stabilizes | stability of the standard, urine matrix interface technology ([2]; kits stored at −20° C.): slowed the rate of degradation but did not prevent 6-MAM degradation | time to significant degradation in mixed kits ([2]; mixed kits stored at −20° C.): ≤ 4 days | stability of the standard in kits that mix enzyme with the analytical standard [2, 4]: not stable | degradation during the manufacturing process (day 0) in mixed kits ([2]; snap freezing at −20° C., day 0): no degradation occurred

CO[C@]12CC[C@@]3(C[C@@H]1[C@](C)(O)C(C)(C)C)[C@H]1Cc4ccc(O[C@@H]5O[C@H](C(=O)O)[C@@H](O)[C@H](O)[C@H]5O)c5c4[C@@]3(CCN1CC1CC1)[C@H]2O5 [buprenorphine glucuronic acid standard, Buprenorphine-3-beta-D-glucuronide]
stability of the standard in ready-to-use kits (free drug degradant peak area normalized to codeine) [1]: fully protected and stabilized | stability of the standard in ready-to-use kits (free drug degradant peak area normalized to codeine) [2]: fully protected and stabilized

CN1CC[C@]23c4c5ccc(O[C@@H]6O[C@H](C(=O)O)[C@@H](O)[C@H](O)[C@H]6O)c4O[C@H]2C(=O)CC[C@H]3[C@H]1C5 [hydromorphone glucuronic acid standard, Hydromorphone 3-beta-D-glucuronide]
stability of the standard in ready-to-use kits (free drug degradant peak area normalized to codeine) [1]: fully protected and stabilized | stability of the standard in ready-to-use kits (free drug degradant peak area normalized to codeine) [2]: fully protected and stabilized
